Laboratory results: patent US7935530B2, “Polyamides with tail structures capable of binding DNA” (California Institute of Technology, priority 2006, dated 2011)

Key:
[1] = test system: HIF-1α mRNA; assay: HIF-1α mRNA by quantitative real-time RT-PCR, U251 cells; assay type: cell-based, human; conditions: induced conditions, polyamides 1 μM, echinomycin 100 nM
Protocol: U251 cells were plated in 24-well plates at a density of 20−30×10^3 cells per well (40−60×10^3 cells/ml) in RPMI (ATCC) supplemented with 5% FBS (Irvine Scientific). After 24 hours, polyamides were added to the adhered cells in cell media solutions at the appropriate concentration and incubated with the cells for 48 hours. […] When appropriate, echinomycin was added two hours prior to DFO stimulation. Isolation of RNA and subsequent cDNA synthesis were as previously described (19). When appropriate, HIF-1α siRNA (HIF-1α validated stealth duplex, Invitrogen) or mismatch control siRNA with similar GC content (Invitrogen) was transfected 48 hours prior to RNA isolation. Transfection of siRNA was achieved using Lipofectamine 2000 (Invitrogen) according to manufacturer's protocols. Quantitative real-time RT-PCR was performed using SYBR Green PCR Master Mix (Applied Biosystems) on an ABI 7300 instrument. Target gene mRNA was measured relative to β-glucuronidase as an endogenous control. Primer employed were: VEGF, L 5′[…]-3′ (SEQ ID NO:22), R 5′-GGGTACTCC TGGAAGATGTCC-3′ (SEQ ID NO:23); β-glucuronidase, L 5′-[…]-3′ (SEQ ID NO:24), R 5′-[…]-3′ (SEQ ID NO:25); FLT1, L 5′-[…]-3′ (SEQ ID NO:26), R 5′-[…]-3′ (SEQ ID NO:27).

[2] = test system: 5′-ATACGT-3′ sequence within the HRE of the VEGF promoter; conditions: values quoted from earlier publications (refs 16, 20); cited from earlier work
[3] = test system: U251 cells; assay: Microarray analysis of gene expression (Affymetrix Human Genome U133 Plus 2.0), DFO-induced U251 cells; assay type: cell-based; conditions: for Number of transcripts affected (p ≦ 0.01): down-regulated (fold change ≦ −2.0) / Number of transcripts affected (p ≦ 0.01): down-regulated (fold change ≦ −4.0) / Number of transcripts affected (p ≦ 0.01): up-regulatd (fold change ≧ 4.0) / Number of transcripts affected (p ≦ 0.01): up-regulated (fold change ≧ 2.0): DFO +; for Number of transcripts whose expression is affected by more than 2-fold (p≦0.01): polyamide 1 μM, echinomycin 100 nM, normalized to DFO-treated controls
Protocol: One potential limitation to the use of hairpin-polyamides for gene regulation is binding site size and specificity for match versus mismatch sites, which may result in prohibitively large numbers of affected genes. To examine this, the global effects of polyamide treatment on hypoxia-induced gene expression were measured using Affymetrix Human Genome U133 Plus 2.0 Arrays containing oligonucleotide sequences representing more than 50,000 transcripts. To establish a benchmark for comparison, the effects of HIF-1α siRNA and echinomycin were also measured. Experiments were conducted in triplicate, and gene expression levels normalized to DFO-treated controls. Cells not treated with DFO were normalized to DFO-treated controls.
U251 cells were plated in 12-well plates at a density of 40-60×10^3 cells per well. Media, time course, DFO, polyamide, echinomycin, and siRNA treatments were as described above. RNA was isolated as previously described. Further sample preparation for microarray experiments was carried out at the Millard and Muriel Jacobs Gene Expression Facility at Caltech. Labeled mRNA was hybridized to Affymetrix Human 133 arrays according to established protocols. Gene expression was analyzed using Resolver (Rosetta Biosoftware, Seattle).

[4] = test system: two 5′-WGWCW-3′ sites approximately 35 basepairs 3′ of the HRE; assay: Quantitative DNase I footprint titration on pGL2-VEGF-Luc, sites 3′ of the HRE; assay type: binding
Protocol: (§1) Quantitative DNase I footprint titration experiments were used to measure the binding affinities of polyamides 11.1, 11.2, 11.3, and echinomycin on 5′ ^32P-labeled fragments of pGL2-VEGF-Luc and pCSJ-FLT1 containing promoter sequences containing the HREs of VEGF and FLT1, respectively. Quantitative DNase I footprint titration experiments were conducted as reported previously (56).

[5] = test system: 5′-AGACA-3′ site 16 basepairs 5′ to the FLT1 HRE; assay: Quantitative DNase I footprint titration on pCSJ-FLT1, site 5′ to the FLT1 HRE; assay type: binding
Protocol: as §1

SMILES | Effect on HIF-1α mRNA (in words) [1] | Ka at the VEGF HRE, previously found [2] | Number of transcripts affected (p ≦ 0.01): down-regulated (fold change ≦ −2.0) [3] | Number of transcripts affected (p ≦ 0.01): down-regulated (fold change ≦ −4.0) [3] | Number of transcripts affected (p ≦ 0.01): up-regulatd (fold change ≧ 4.0) [3] | Number of transcripts affected (p ≦ 0.01): up-regulated (fold change ≧ 2.0) [3] | Number of the 31 previously identified direct HIF-1 target transcripts (induced at least 1.5-fold by DFO) down-regulated / inhibited ([3]; DFO-induced U251) | Number of the 297 transcripts induced by DFO at least 4-fold that are inhibited by ≧2-fold (p≦0.01) ([3]; DFO-induced U251) | Share of the 297 transcripts induced by DFO that were inhibited ([3]; DFO-induced U251) | Number of transcripts whose expression is affected by more than 2-fold (p≦0.01) ([3]; DFO-induced U251) | Affected transcripts (2-fold, p≦0.01) after eliminating all transcripts affected by DFO alone (1.5-fold, p≦0.01) ([3]; U251 microarray) | Share of interrogated / assayed transcripts affected ([3]; U251 microarray) | Ka approximately 35 basepairs 3′ of the HRE, most likely two 5′-WGWCW-3′ sites [4] | Ka at a 5′-AGACA-3′ site 16 basepairs 5′ to the FLT1 HRE [5]
CN(CCCNC(=O)c1cccc(C(=O)O)c1)CCCNC(=O)c1cc(NC(=O)c2cc(NC(=O)c3nc(NC(=O)c4cc(NC(=O)[C@H](N)CCNC(=O)c5nc(NC(=O)c6cc(NC(=O)c7cc(NC(=O)c8sccc8Cl)cn7C)cn6C)cn5C)cn4C)cn3C)cn2C)cn1C [Polyamide 11] | minimally affected | 2.6 (±0.4)×10^10 M^−1 | 1,575 | 336 | 57 | 709 | 14 | 69 | Approximately 23% | 2,284 | 1,626 | less than 5% | – | –
CN(CCCNC(=O)c1cccc(C(=O)O)c1)CCCNC(=O)c1cc(NC(=O)c2cc(NC(=O)c3cc(NC(=O)c4nc(NC(=O)[C@H](N)CCNC(=O)c5cc(NC(=O)c6cc(NC(=O)c7nc(NC(=O)c8nccn8C)cn7C)cn6C)cn5C)cn4C)cn3C)cn2C)cn1C [Polyamide 23] | – | – | – | – | – | – | – | – | – | – | – | – | 7.6 (±1.0)×10^8 M^−1 | 2.7 (±0.4)×10^9 M^−1
CS[C@H]1SC[C@H]2C(=O)N(C)[C@@H](C(C)C)C(=O)OC[C@@H](NC(=O)c3cnc4ccccc4n3)C(=O)N[C@@H](C)C(=O)N(C)[C@@H]1C(=O)N(C)[C@@H](C(C)C)C(=O)OC[C@@H](NC(=O)c1cnc3ccccc3n1)C(=O)N[C@@H](C)C(=O)N2C [echinomycin, reference compound] | minimally affected | – | 7,426 | 4,133 | 413 | 3,480 | 31 | 263 | – | 10,906 | – | – | – | –
